Laboratory results as given in PMC9575003 (Pharmacology, biochemistry, and behavior, 2016).

Assays:
[1] = biological target: hNET (norepinephrine transporter) (Homo sapiens, UniProt P23975); test: in vitro binding affinity
dopamine D4 receptor = dopamine D4 receptor (Homo sapiens, UniProt P21917); test: Ki, apparently from the radioligand screening panel
[2] = biological target: hDAT (dopamine transporter) (Homo sapiens, UniProt Q01959); test: in vitro binding affinity
[3] = biological target: hSERT (serotonin transporter) (Homo sapiens, UniProt P31645); test: in vitro binding affinity
Chain of hSERT (serotonin transporter) (P31645 whole entry): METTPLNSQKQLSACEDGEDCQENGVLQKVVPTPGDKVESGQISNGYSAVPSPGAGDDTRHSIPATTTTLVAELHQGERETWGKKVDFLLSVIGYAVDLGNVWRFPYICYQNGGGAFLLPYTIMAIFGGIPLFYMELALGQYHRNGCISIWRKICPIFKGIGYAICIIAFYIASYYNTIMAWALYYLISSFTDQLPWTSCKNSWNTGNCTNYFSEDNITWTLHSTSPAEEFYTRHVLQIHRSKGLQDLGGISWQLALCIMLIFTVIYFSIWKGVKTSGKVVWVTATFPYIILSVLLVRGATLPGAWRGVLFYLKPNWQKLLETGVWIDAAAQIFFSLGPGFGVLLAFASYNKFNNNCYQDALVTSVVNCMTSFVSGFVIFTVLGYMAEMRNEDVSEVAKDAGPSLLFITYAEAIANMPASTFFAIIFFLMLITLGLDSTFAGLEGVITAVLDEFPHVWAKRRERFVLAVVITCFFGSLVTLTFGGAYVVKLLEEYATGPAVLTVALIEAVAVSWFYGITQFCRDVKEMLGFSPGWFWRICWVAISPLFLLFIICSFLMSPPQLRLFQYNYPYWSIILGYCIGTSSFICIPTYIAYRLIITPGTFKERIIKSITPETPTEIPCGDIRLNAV

Chain of hDAT (dopamine transporter) (Q01959 whole entry): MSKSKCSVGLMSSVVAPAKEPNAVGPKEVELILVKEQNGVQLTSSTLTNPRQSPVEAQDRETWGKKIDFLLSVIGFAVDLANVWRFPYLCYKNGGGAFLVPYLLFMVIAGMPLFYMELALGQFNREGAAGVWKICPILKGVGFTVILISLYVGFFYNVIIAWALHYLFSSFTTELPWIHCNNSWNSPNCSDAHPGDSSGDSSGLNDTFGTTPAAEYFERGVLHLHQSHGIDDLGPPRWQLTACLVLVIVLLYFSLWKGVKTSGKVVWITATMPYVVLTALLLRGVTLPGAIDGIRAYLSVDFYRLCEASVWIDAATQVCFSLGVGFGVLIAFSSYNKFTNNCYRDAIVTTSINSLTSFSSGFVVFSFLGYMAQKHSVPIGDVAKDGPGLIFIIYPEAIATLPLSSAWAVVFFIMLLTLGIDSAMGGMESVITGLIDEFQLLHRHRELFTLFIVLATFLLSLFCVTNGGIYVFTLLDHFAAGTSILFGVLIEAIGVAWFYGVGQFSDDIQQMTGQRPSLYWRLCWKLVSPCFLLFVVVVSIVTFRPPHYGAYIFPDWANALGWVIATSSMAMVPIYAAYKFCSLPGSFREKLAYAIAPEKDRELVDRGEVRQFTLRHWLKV
Chain of dopamine D4 receptor (P21917 whole entry): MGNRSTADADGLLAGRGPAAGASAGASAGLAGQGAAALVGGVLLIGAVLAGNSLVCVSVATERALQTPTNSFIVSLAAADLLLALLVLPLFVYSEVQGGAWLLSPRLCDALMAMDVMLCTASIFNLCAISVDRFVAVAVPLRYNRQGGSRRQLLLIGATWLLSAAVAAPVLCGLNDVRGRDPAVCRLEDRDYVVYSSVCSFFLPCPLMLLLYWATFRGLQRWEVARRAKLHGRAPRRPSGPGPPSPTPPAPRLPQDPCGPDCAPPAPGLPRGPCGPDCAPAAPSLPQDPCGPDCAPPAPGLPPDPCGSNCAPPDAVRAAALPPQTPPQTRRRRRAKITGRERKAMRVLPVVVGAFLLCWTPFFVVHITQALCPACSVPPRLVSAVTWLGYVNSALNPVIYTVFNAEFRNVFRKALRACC
Chain of hNET (norepinephrine transporter) (P23975 whole entry): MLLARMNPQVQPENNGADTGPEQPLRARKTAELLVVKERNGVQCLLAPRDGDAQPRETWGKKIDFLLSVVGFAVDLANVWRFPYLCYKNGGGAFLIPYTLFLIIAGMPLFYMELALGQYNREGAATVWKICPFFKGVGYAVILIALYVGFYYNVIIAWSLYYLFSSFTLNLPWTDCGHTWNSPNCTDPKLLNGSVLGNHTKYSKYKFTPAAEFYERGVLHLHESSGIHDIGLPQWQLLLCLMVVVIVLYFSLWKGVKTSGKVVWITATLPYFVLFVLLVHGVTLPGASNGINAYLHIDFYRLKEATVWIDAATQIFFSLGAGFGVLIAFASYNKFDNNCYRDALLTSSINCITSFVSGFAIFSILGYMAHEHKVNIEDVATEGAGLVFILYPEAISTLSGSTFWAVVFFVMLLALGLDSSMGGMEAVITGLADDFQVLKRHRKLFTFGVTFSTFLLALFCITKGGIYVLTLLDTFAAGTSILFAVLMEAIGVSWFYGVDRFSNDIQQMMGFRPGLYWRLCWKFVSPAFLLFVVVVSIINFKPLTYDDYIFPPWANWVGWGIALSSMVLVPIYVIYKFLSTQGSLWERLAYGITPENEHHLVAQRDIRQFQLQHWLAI

Work on `C[C@@H](CN1CCC(Cc2ccccc2)CC1)C(O)c1ccc(O)cc1` (stereo partly shown) [MI-4, Ro-25-6981] yielded a Ki [1] of 365 nM, a Ki (dopamine D4 receptor) of 120 nM and a Ki [2] of 3460 nM. For the same compound, the Ki [3] was 670 nM.
